7 compounds from patent US20130178413A1, “HCV NS3 PROTEASE INHIBITORS” (priority 2010, published 2013) can be followed below.

For assay [1], the target named is NS3/4A protease gt 1b A156V (Hepatitis C virus genotype 1b, UniProt P26663, A1182V). In words: HCV NS3 protease time-resolved fluorescence (TRF) assay, NS3/4A inhibitory activity (Ki), gt 1b A156V mutant. It counts as biochemical, hepatitis C virus (HCV). The method, then:
(§1) The HCV NS3 protease inhibitory activity of the present compounds may be tested using assays known in the art. One such assay is HCV NS3 protease time-resolved fluorescence (TRF) assay as described below and in International Patent Application Publication WO2006/102087. Other examples of such assays are described in e.g., International Patent Application Publication WO2005/046712. HCV NS3 protease inhibitors, such as those described herein have a Ki less than 50 μM, such as less than 10 μM, and less than 100 nM. Ki is determined by an NS3 protease assay. The assay is performed in a final volume of 100 μl in assay buffer containing 50 mM HEPES, pH 7.5, 150 mM NaCl, 15% glycerol, 0.15% TRITON X-100, 10 mM DTT, and 0.1% PEG 8000. NS3 protease is pre-incubated with various concentrations of inhibitors in DMSO for 30 minutes. The reaction is initiated by adding the TRF peptide substrate (final concentration 100 nM). NS3 mediated hydrolysis of the substrate is quenched after 1 hour at room temperature with 100 μl of 500 mM MES, pH 5.5. Product fluorescence is detected using either a VICTOR V2 or FUSION fluorophotometer (Perkin Elmer Life and Analytical Sciences) with excitation at 340 nm and emission at 615 nm with a 400 μs delay. Testing concentrations of different enzyme forms are selected to result in a signal to background ratio (S/B) of 10-30. IC50 values are derived using a standard four-parameter fit to the data. Ki values are derived from IC50 values using the following formula,
(§2) IC50=Ki(1+[S]/KM), Eqn (1),
(§3) where [S] is the concentration of substrate peptide in the reaction and KM is the Michaelis constant. See P. Gallinari et al., 38 BIOCHEM. 5620-32 (1999); P. Gallinari et al., 72 J. VIROL. 6758-69 (1998); M. Taliani et al., 240 ANAL. BIOCHEM. 60-67 (1996).
(§4) One such assay is HCV NS3 protease time-resolved fluorescence (TRF) assay as described below and in Mao et al., Anal Biochem. 373:1-8, 2008 and International Patent Application Publication WO 2006/102087. A NS3 protease assay can be performed, for example, in a final volume of 100 μl assay buffer containing 50 mM HEPES, pH 7.5, 150 mM NaCl, 15% glycerol, 0.15% TRITON X-100, 10 mM DTT, and 0.1% PEG 8000. NS3 and NS4A protease is pre-incubated with various concentrations of inhibitors in DMSO for 30 minutes. The reaction is initiated by adding the TRF peptide substrate (final concentration 100 nM). NS3 mediated hydrolysis of the substrate is quenched after 1 hour at room temperature with 100 μl of 500 mM MES, pH 5.5. Product fluorescence is detected using either a VICTOR V2 or FUSION fluorophotometer (Perkin Elmer Life and Analytical Sciences) with excitation at 340 nm and emission at 615 nm with a 400 μs delay. Testing concentrations of different enzyme forms are selected to result in a signal to background ratio (S/B) of 10-30. IC50 values are derived using a standard four-parameter fit to the data. Ki values are derived from IC50 values using the following formula,
(§5) where [S] is the concentration of substrate peptide in the reaction and KM is the Michaelis constant. See P. Gallinari et al., 38 BIOCHEM. 5620-32 (1999); P. Gallinari et al., 72 J. VIROL. 6758-69 (1998); M. Taliani et al., 240 ANAL. BIOCHEM. 60-67 (1996); Mao et al., Analytical Biochemistry 373: 1-8, 2008. Measuring Compound Inhibitory Potency (Replicon EC50 (nM))

The next assay has as its target NS3/4A protease gt 3a (Hepatitis C virus genotype 3a, UniProt Q81258). Nature of the assay: HCV NS3 protease time-resolved fluorescence (TRF) assay, NS3/4A inhibitory activity (Ki), gt 3a. It counts as biochemical. As to conditions: genotype 3a NS3/4A; read-out: Enzyme Activity gt 3a Ki. The method, then: as §1, §2, §3, §4, §5
The next assay deals with gt 1b Replicon. In words: HCV replicon assay, compound inhibitory potency (Replicon EC50). Format: cell-based. The conditions noted are these: Hepatitis C virus, GT1B. The method, then: Measurement of inhibition by compounds was performed using the HCV replicon system. Several different replicons encoding different HCV genotypes or mutations were used. In addition, potency measurements were made using different formats of the replicon assay, including different ways of measurements and different plating formats. See Jan M. Vrolijk et al., A replicons-based bioassay for the measurement of interferons in patients with chronic hepatitis C, 110 J. VIROLOGICAL METHODS 201 (2003); Steven S. Carroll et al., Inhibition of Hepatitis C Virus RNA Replication by 2′-Modified Nucleoside Analogs, 278(14) J. BIOLOGICAL CHEMISTRY 11979 (2003). However, the underlying principles are common to all of these determinations, and are outlined below.
Stable neomycin phosphotransferase encoding replicon-harboring cell lines were used, so all cell lines were maintained under G418 selection prior to the assay. In some cases the cell lines encoded a luciferase:Neor fusion and could be assayed either directly by determination of RNA copy number, or indirectly through measurement of the luciferase activity.
To initiate an assay, replicon cells were plated in the presence of a dilution series of test compound in the absence of G418. Typically, the assays were performed in a 96-well plate format for manual operation, or a 384 well plate in an automated assay. Replicon cells and compound were incubated for 24-48 hours, depending on the assay. At the end of the assay, cells are washed free of media and compound and then lysed. For direct quantitation, RNA levels were measured by ^32P-probe hybridization and protection, or in a TAQMAN based assay and normalized to cellular cyclophilin A RNA levels. In some cases, luciferase activity was measured using a conventional luciferase assay. In all cases EC50 determinations were calculated as a percent of a DMSO control by fitting the data to a four parameter fit function.
On the technique in general: Replicon systems follow genome replication, usually without infectious particles.

A further assay deals with NS3/4A protease gt 1b (Hepatitis C virus genotype 1b, UniProt P26663). In words: HCV NS3 protease time-resolved fluorescence (TRF) assay, NS3/4A inhibitory activity (Ki), gt 1b. Format: biochemical. As to conditions: genotype 1b NS3/4A; read-out: Enzyme Activity gt 1b Ki. The protocol: as §1, §2, §3, §4, §5
The mark [2] stands for this setting: 10% Fetal Bovine Serum, read-out: gt 1b Replicon EC50 10% FBS.
[3] abbreviates: 50% Normal Human Serum, read-out: gt 1b Replicon EC50 50% NHS.

Read-outs that look alike come from different tables or passages of the source.

Broadly, the Ki is the equilibrium dissociation constant of an inhibitor or competing ligand from its target. In general, EC50 refers to the concentration that produces a half-maximal response. In the case of `C=C[C@@H]1C[C@]1(NC(=O)[C@@H]1C[C@@H]2CN1C(=O)[C@H](C(C)(C)C)NC(=O)O[C@]1(C)C[C@H]1CCCCCc1cccc3c1CN(C3)C(=O)O2)C(=O)NS(=O)(=O)C1CC1` [Example I-6, (1aR,5S,8S,10R,23aR)-5-tert-butyl-N-{(1R,2S)-1-[(cyclopropylsulfonyl)carbamoyl]-2-ethenylcyclopropyl}-1a-methyl-3,6,12-trioxo-1a,3,4,5,6,9,10, 14,19,20,21,22,23,23a-tetradecahydro-1H,8H-7,10:13,15-dimethano cyclopropa [n][4,13,2,8,11] benzodioxatriaza cyclodocosine-8(12H)-carboxamide], the Ki amounted to 0.3 nM in assay [1], 2.9 nM at NS3/4A protease gt 3a and 0.02 nM on NS3/4A protease gt 1b. For the same compound, the results for the EC50 in the assay with gt 1b Replicon (setting [2]) and in the assay with gt 1b Replicon (setting [3]) were 3 nM and 54 nM, respectively.

On to `CC[C@@H]1C[C@]1(NC(=O)[C@@H]1C[C@@H]2CN1C(=O)[C@H](C(C)(C)C)NC(=O)O[C@]1(C)C[C@H]1CCCCCc1cccc3c1CN(C3)C(=O)O2)C(=O)NS(=O)(=O)C1CC1` [Example I-7, (1aR,5S,8S,10R,23aR)-5-tert-butyl-N-{(1R,2R)-1-[(cyclopropylsulfonyl)carbamoyl]-2-ethylcyclopropyl}-1a-methyl-3,6,12-trioxo-1a,3,4,5,6,9,10,14,19, 20,21,22,23,23a-tetradecahydro-1H,8H-7,10:13,15-dimethano cyclopropa[n][4,13,2,8, 11]benzodioxatriaza cyclodocosine-8(12H)-carboxamide], for which the values for the Ki (in assay [1]; on NS3/4A protease gt 3a; on NS3/4A protease gt 1b) were 2.2 nM, 8.7 nM and 0.02 nM, respectively. Also, the results for the EC50 with gt 1b Replicon (setting [2]) and with gt 1b Replicon (setting [3]) were 4 nM and 27 nM, respectively.

For `C=C[C@@H]1C[C@]1(NC(=O)[C@@H]1C[C@@H]2CN1C(=O)[C@H](C(C)(C)C)NC(=O)O[C@]1(C)C[C@H]1CCCCCc1nc3ccccc3nc1O2)C(=O)NS(=O)(=O)C1CC1` [Example I-8, (1aR,5S,8S,10R,22aR)-5-tert-butyl-N-{(1R,2S)-1-[(cyclopropylsulfonyl)carbamoyl]-2-ethenylcyclopropyl}-1a-methyl-3,6-dioxo-1,1a,3,4,5,6,9,10,18,19, 20,21,22,22a-tetra decahydro-8H-7,10-methanocyclopropa[18, 19][1,10,3,6]dioxatriaza cyclononadecino[11,12-b]quinoxaline-8-carboxamide], the values for the Ki (in assay [1]; on NS3/4A protease gt 3a; at NS3/4A protease gt 1b) were 11.5 nM, 0.5 nM and 0.02 nM, respectively. For the same compound, the figures for the EC50 with gt 1b Replicon (setting [2]) and in the assay on gt 1b Replicon (setting [3]) were 2 nM and 6 nM, respectively.

With `C=C[C@@H]1C[C@]1(NC(=O)[C@@H]1C[C@@H]2CN1C(=O)[C@H](C(C)(C)C)NC(=O)O[C@]1(C)C[C@H]1CCCCCc1nc3ccc(OC)cc3cc1O2)C(=O)NS(=O)(=O)C1CC1` [Example I-10, (1aR,5S,8S,10R,22aR)-5-tert-butyl-N-{(1R,2S)-1-[(cyclopropylsulfonyl)carbamoyl]-2-ethenylcyclopropyl}-14-methoxy-1a-methyl-3,6-dioxo-1,1a,3,4,5,6,9,10,18,19,20,21,22, 22a-tetradecahydro-8H-7,10-methanocyclo propa[18,19][1,10,3,6] dioxadiazacyclonona decino[12,11-b] quinoline-8-carboxamide], the results for the Ki (in assay [1]; on NS3/4A protease gt 3a; on NS3/4A protease gt 1b) were 4.2 nM, 0.2 nM and 0.02 nM, respectively. In addition, the EC50 came to 4 nM in the assay with gt 1b Replicon (setting [2]) and 10 nM with gt 1b Replicon (setting [3]).

Regarding `C=C[C@@H]1C[C@]1(NC(=O)[C@@H]1C[C@@H]2CN1C(=O)[C@H](C1CCCC1)NC(=O)O[C@]1(C)C[C@H]1CCC/C=C/c1cccc3c1CN(C3)C(=O)O2)C(=O)NS(=O)(=O)C1CC1` [Example I-12, (1aR,5S,8S,10R,19E,23aR)-5-cyclopentyl-N-{(1R,2S)-1-[(cyclopropylsulfonyl)carbamoyl]-2-ethenylcyclopropyl}-1a-methyl-3,6,12-trioxo-1a,3,4,5,6,9,10, 14,21,22,23,23a-dodecahydro-1H,8H-7,10:13,15-dimethano cyclopropa[n][4,13,2,8, 11]benzodioxatriaza cyclodocosine-8(12H)-carboxamide], the Ki was 1.4 nM in assay [1], 12 nM at NS3/4A protease gt 3a and 0.02 nM on NS3/4A protease gt 1b. The EC50 with gt 1b Replicon (setting [2]) was found to be 5 nM; in the assay on gt 1b Replicon (setting [3]) it was 19 nM.

`C=C[C@@H]1C[C@]1(NC(=O)[C@@H]1C[C@@H]2CN1C(=O)[C@H](C1CCCC1)NC(=O)O[C@]1(C)C[C@H]1CCCCCc1cccc3c1CN(C3)C(=O)O2)C(=O)NS(=O)(=O)C1CC1` [Example I-13, (1aR,5S,8S,10R,23aR)-5-cyclopentyl-N-{(1R,2S)-1-[(cyclopropylsulfonyl)carbamoyl]-2-ethenylcyclopropyl}-1a-methyl-3,6,12-trioxo-1a,3,4,5,6,9,10, 14,19,20,21,22,23,23a-tetradecahydro-1H,8H-7,10:13,15-dimethano cyclopropa[n][4,13,2,8, 11]benzodioxatriaza cyclodocosine-8(12H)-carboxamide]: the Ki was 0.4 nM in assay [1], 32.9 nM on NS3/4A protease gt 3a and 0.02 nM at NS3/4A protease gt 1b. The EC50 came out at 4 nM in the assay on gt 1b Replicon (setting [2]) and 16 nM with gt 1b Replicon (setting [3]).

For `C=C[C@@H]1C[C@]1(NC(=O)[C@@H]1C[C@@H]2CN1C(=O)[C@H](C1CCCC1)NC(=O)O[C@]1(C)CCC[C@H]1CCCCCc1c(nc3ccccc3c1O)O2)C(=O)NS(=O)(=O)C1CC1` [Example I-16, (3aR,7S,10S,12R,24aR)-7-cyclopentyl-N-{(1R,2S)-1-[(cyclopropylsulfonyl)carbamoyl]-2-ethenylcyclopropyl}-19-hydroxy-3a-methyl-5,8-dioxo-1,2,3,3a,5,6,7,8,11,12,20,21,22,23,24, 24a-hexadecahydro-10H-9,12-methano cyclopenta[18,19][1,10,3,6]dioxadiazacyclo nonadecino[11,12-b]quinoline-10-carboxamide], the Ki in assay [1] was determined as 2.4 nM; at NS3/4A protease gt 3a, 1.4 nM; on NS3/4A protease gt 1b it was 0.02 nM. Also, the EC50 in the assay with gt 1b Replicon (setting [2]) was 9 nM; with gt 1b Replicon (setting [3]) it was 27 nM.
